Measured values published in paper PMC11790956, “A microscale thermophoresis-based enzymatic RNA methyltransferase assay enables the discovery of DNMT2 inhibitors” (Communications Chemistry, 2025).
Entries after “also recorded” stand apart in the source; their conditions may differ.

Columns and labels:
[1] = target: T1, DNMT2-tRNA complex (Homo sapiens, UniProt O14717); assay: Electrophoretic mobility shift assay (EMSA) of the DNMT2-tRNA complex; assay type: binding; conditions: 500 µM compound, DNMT2 10 µM, tRNAAsp 5 µM
T1 construct: made in house
T1 sequence (O14717 1-391): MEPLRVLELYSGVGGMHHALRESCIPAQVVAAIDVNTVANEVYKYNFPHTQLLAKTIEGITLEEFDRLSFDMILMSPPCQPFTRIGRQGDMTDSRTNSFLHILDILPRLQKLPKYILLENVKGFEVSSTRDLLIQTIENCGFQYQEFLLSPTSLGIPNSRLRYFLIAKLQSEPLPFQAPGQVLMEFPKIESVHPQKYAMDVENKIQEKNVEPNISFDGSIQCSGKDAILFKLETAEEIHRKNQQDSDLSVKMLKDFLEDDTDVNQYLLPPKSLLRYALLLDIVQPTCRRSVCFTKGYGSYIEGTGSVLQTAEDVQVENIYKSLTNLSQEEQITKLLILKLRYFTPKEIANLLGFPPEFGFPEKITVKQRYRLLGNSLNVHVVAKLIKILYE
Experimental: We speculated these hits might bind very weakly to the tRNA-DNMT2 interaction site and by this inhibit DNMT2 activity. To test this hypothesis, we performed an electrophoretic mobility shift assay (EMSA) using tRNA^Asp (5 µM) and DNMT2 (10 µM) compared to the tRNA sample in absence of the DNMT2 protein (SI Fig. 4)[33]. […] Subsequently, we treated the DNMT2-tRNA complex with all hit compounds at 500 µM and observed their potential to disrupt the complex.
DNMT2 (10 µM) was mixed with tRNA^Asp (5 µM) and treated with 500 µM of the respective screening hit compound in DNMT2 assay buffer (100 mM Tris-HCl, pH 8, 100 mM NH4OAc, 0.1 mM EDTA, 10 mM MgCl2, 10 mM DTT). Subsequently, reaction samples (each 5 µL) were loaded to a native 10% polyacrylamide gel and separated electrophoretically (1 h, 180 V) in 1x TBE. RNA was stained in situ with 1x GelRed and PAGE analysis was conducted by fluorescence scanning at an excitation wavelength of 532 nm (Amersham Typhoon 9400). Positive control: DNMT2+tRNA (band at high molecular weights); negative control: only tRNA (band at low molecular weights).
SI Figure 4. Electrophore?c mobility shi? assay (EMSA) to inves?gate the inﬂuence of screening hits on the DNMT2-tRNA complex forma?on. D NMT2 (10 µ M ) was mixe d w it h t RNAAsp (5 µM) and treated with 50 0 µM of the respec?ve screening hit compound in DNMT2 assay buﬀer. All reac?on samples (each 5 µL) were loaded to a na?ve 10% polyacr ylamide gel and separated electrophore?cally (1 h, 1 80 V) in 1x TBE. RNA was stained in situ with 1x GelRed and PAGE analysis was conducted by ﬂuorescence scanning at an excita?on wavelength of 532 nm (Amersham Typhoon 9400). Po s i ? ve control: DNMT2+tRNA (band at high molecular weights); nega?ve control: only tRNA (band at low

[2] = target: T2, DNMT2 (Homo sapiens, UniProt O14717); assay: DNMT2 enzymatic split aptamer MST assay; assay type: biochemical
T2 construct: made in house
T2 sequence (O14717 1-391): T1 sequence (O14717 1-391)
Experimental: The enzyme kinetics were characterized by calculating the Michaelis-Menten constant (KM or kcat) and inhibitory constants (IC50 resp. KI).
The final drug compound concentration was adjusted to 500 µM for the epigenetic drug library (Fig. 5) resp. 100 µM for the covalent compound library (Fig. 6), and the enzymatic reaction was incubated for 30 min at 25 °C. Subsequently, enzymatic reactions were terminated by the addition of 0.3% SDS, and the product SAH was quantified by the split aptamer MST assay (Figs. 5A, B, 6A).

[3] = target: T2, DNMT2; assay: DNMT2 fluorescence polarization (FP) FTAD displacement assay; assay type: binding
Experimental: Fluorescence polarization assays were conducted with a similar sample composition as described for FTAD-MST assays as described previously. Triplicates (50 µL) were prepared in black 96-well half-area plates (Greiner) and measured using a Spark 10 M plate reader (Tecan) equipped with polarization filters coupled to a monochromator setup (FTAD: λex = 480 nm, λem = 530 nm). Polarization values (in mP) were calculated from polarization-specific parallel and orthogonal fluorescence intensities according to the Tecan in-built calculation routine.
Reversibility of alexidine binding to DNMT2 was evaluated with a modified FP-assay setup. Briefly, reaction mixtures containing alexidine were prepared in black 96-well half-area plates, and after FP measurement, the volume of one well (50 µL) was collected and applied to a Zeba™ Spin Desalting Column (7 K MWCO) while 5 µL of a 10x DNMT2 buffer solution (500 mM HEPES, 1.5 M NaCl, 10 mM dithiothreitol (DTT), 1% PEG-8000, 0.5% polysorbate-20, pH 7.4) was placed in the collection tube attached to the SEC column. This procedure separated alexidine and restored the initial composition of the DNMT2 assay solution.
Kinetic FP assays were performed to assess the time-dependent inactivation of DNMT2 treated with covalent inhibitors. Briefly, samples contained 2 µM DNMT2, 100 nM FTAD probe, and 1.3% DMSO in DNMT2 MST buffer. Inhibitors were added from DMSO stocks. Negative inhibition control was performed by mock treatment with DMSO. Reactions were initiated by the addition of the Cpd 11 (adamantanyl-acryloylurea) and monitored for 120 min at 25 °C in a Tecan Spark 10 M plate reader (FTAD: λex = 480 nm, λem = 530 nm) The irreversible inhibition kinetics were analyzed as described previously[35],[36].

[4] = system: aptaSAH1&2 SAH split aptamer; assay: Split aptamer (aptaSAH1&2) MST ligand titration; assay type: binding, D. aromatica
Experimental: To establish our experimental setup, we mixed both aptamer fragment oligonucleotides at equimolar concentrations (final: 50 nM) and titrated series of SAH resp. SAM dilutions to this prototypical SAH biosensor. […] Furthermore, MST assays require only 10 µL of sample volume per capillary compared to 30 µL per well in a 96-well plate supporting high-throughput applications in material consumption.
To evaluate the effect of inhibitors on DNMT2 activity, we used two known inhibitors, SHO108 and SH112. These SAH derivatives were selected based on their documented efficacy for DNMT2[8],[26].
For MTase assay detection by MST, enzyme reaction mixtures with a total volume of 10 µL per single treatment condition were prepared and incubated for the desired reaction times. Inhibitors were added from corresponding DMSO stocks to a final DMSO concentration of max. 5%. Afterward, reactions were quenched at a given reaction time by the addition of 1 µL sodium dodecyl sulfate (SDS, solution, 3% in water) per 10 µL reaction mixture and mixed well by pipetting. Subsequently, 1 µL of a 10× aptamer-containing detection master mix (200 mM Tris, pH 8.5, 200 mM MgCl2, 3 M NaCl, 10 mM urea, 0.2% Brij, 500 nM aptaSAH1, 500 nM aptaSAH2) was added to the quenched MTase reaction and incubated for 1 h at room temperature. Reaction mixtures were loaded directly to MST capillaries without further purification or sample processing.
MST experiments were carried out in at least technical triplicates using a Monolith NT.115 instrument (NanoTemper Technologies) using Monolith standard capillaries and the blue excitation laser setup. The instrument was calibrated according to the manufacturer’s instructions. General settings were applied for all MST experiments as follows: manual temperature control: 25 °C, fluorescence measurement before MST: 4 s, MST (IR laser) on: 20 s, fluorescence after MST: 2 s, delay: 25 s. The laser power was adjusted to optimize the signal-to-noise ratio and the fluorescence signal. LED and MST power settings were chosen individually for each sample by adjusting the LED power to yield fluorescence signals of at least 300 units (blue laser) or 3000 units (red laser) and the MST power to achieve an appropriate thermophoretic response (standard setting: medium MST power). MST measurements were analyzed using the NT analysis software (version 1.5.41) and exported for statistical analysis and plotting in GraphPad Prism 7.01.

[5] = target: T2, DNMT2; assay: DNMT2 radiometric 3H incorporation assay; assay type: biochemical
Experimental: (§1) To further validate our findings on DNMT2, we compared the split aptamer inhibition assay results of both inhibitors with those obtained from a previously published orthogonal assay method, the radiometric ^3H incorporation assay[8],[26]. […] Using an additional non-enzymatic MTase assay technique, we also investigated the two DNMT2 inhibitors utilizing an orthogonal MST method based on a fluorescent tracer displacement assay (SI Fig. 1)[27],[28].
Radiometric DNMT2 assays were carried out as described previously. HTRF MTase assays with the commercial AptaFluor SAH assay kit (BellBrook Labs) were performed as described in the manufacturer’s manual in 96-well format.

[6] = target: T2, DNMT2; assay: Fluorescent tracer displacement assay (FTAD-MST assay); assay type: binding
Text: as §1
Fluorescent tracer displacement MST assays for orthogonal ligand evaluation were conducted as described previously. The samples contained 2 µM DNMT2, 100 nM FTAD probe, and 1.3% DMSO in MST buffer (50 mM HEPES, 150 mM NaCl, 1 mM dithiothreitol (DTT), 0.1% PEG-8000, 0.05% polysorbate-20, pH 7.4) supplemented with variable concentrations of the screening compounds. All samples were measured in triplicates in Monolith standard capillaries at 25 °C. The acquisition mode was set to “Nano-Blue” with an excitation power of 30% and a medium MST power. MST measurements were analyzed using the NT analysis software (version 1.5.41) and exported for statistical analysis and plotting in GraphPad Prism 7.01.

c1cc(-c2cnn3cc(-c4ccc(OCCN5CCCCC5)cc4)cnc23)ccn1 [Cpd 1]
influence on DNMT2-tRNA complex formation [1]: showed the potential to reverse the complex formation

COc1cc2nc(N3CCCN(C)CC3)nc(NC3CCN(Cc4ccccc4)CC3)c2cc1OC [Cpd 2]
influence on DNMT2-tRNA complex formation [1]: showed the potential to reverse the complex formation

CCCCC(CC)CNC(=N)NC(=N)NCCCCCCNC(=N)NC(=N)NCC(CC)CCCC (stereo not shown) [Cpd 3, alexidine]
influence on DNMT2-tRNA complex formation [1]: do not inﬂuence the complex; also recorded: did not influence DNMT2-tRNA complex formation
DNMT2 inhibition at concentrations <500 µM ([2]; enzymatic aptamer assay): showed inhibition
fluorescence polarization in the presence of compound ([3]; DNMT2-FTAD complex alone 96 mP): 5 mP
Kd ([3]; DNMT2 FP assay, FTAD tracer): 364 µM
reversibility of binding ([3]; FP displacement with SEC separation): fully reversible binder
displacement of FTAD tracer / binding to SAH-binding site ([3]; FP library screening with FTAD tracer): binding to the SAH-binding site; also recorded: able to compete with the fluorescent SAH-analog
fluorescence polarization restored after size-exclusion chromatography ([3]; after SEC removal of compound): 92 mP
fluorescence polarization after second treatment ([3]; second treatment after SEC): 4 mP

CC(=O)c1cc([N+](=O)[O-])c(Sc2ccc(F)cc2F)s1 [Cpd 4]
influence on DNMT2-tRNA complex formation [1]: do not inﬂuence the complex; also recorded: unable to disrupt the protein-tRNA complex

Cc1ncc(Cl)cc1NCc1ccc(C(=O)N[C@@H](CC2CCCC2)C(=O)NC2CC2)s1 [Cpd 5]
influence on DNMT2-tRNA complex formation [1]: showed the potential to reverse the complex formation

COc1ccn2ncc(-c3nc4[nH]nc(NC(=O)c5ccc(F)cc5)c4cc3F)c2c1 [Cpd 6]
influence on DNMT2-tRNA complex formation [1]: showed the potential to reverse the complex formation

Cc1cc(Nc2cc(Cl)nc(Oc3ccc([N+](=O)[O-])cc3)n2)n[nH]1 [Cpd 7]
influence on DNMT2-tRNA complex formation [1]: do not inﬂuence the complex; also recorded: unable to disrupt the protein-tRNA complex

N[C@H](CNc1nc(-c2ccncc2)nc2sc3c(c12)CCCC3)Cc1ccccc1 [Cpd 8]
influence on DNMT2-tRNA complex formation [1]: showed the potential to reverse the complex formation

CNC(=O)Nc1ccc2c(c1)CCC21OC(=O)N(CC(=O)N(Cc2ccc(F)cc2)C(C)C(F)(F)F)C1=O (stereo not shown) [Cpd 9]
influence on DNMT2-tRNA complex formation [1]: showed the potential to reverse the complex formation

Cc1ccc(C(=O)COC(=O)c2cccc(NC(=O)c3ccc([N+](=O)[O-])cc3[N+](=O)[O-])c2)cc1 [Cpd 10]
influence on DNMT2-tRNA complex formation [1]: do not inﬂuence the complex; also recorded: unable to disrupt the protein-tRNA complex

Nc1ncnc2c1ncn2[C@@H]1O[C@H](CN(CC[C@H](N)C(=O)O)Cc2ccc(Cl)c(C(F)(F)F)c2)[C@@H](O)[C@H]1O [SH112, (S)-2-amino-4-((((2 R,3S,4 R,5 R)-5-(6-amino-9H-purin-9-yl)-3,4-dihydroxytetrahydrofuran-2-yl)methyl)(4-chloro-3-(trifluoromethyl)benzyl)amino)butanoic acid]
binding to split aptamer (MST shift) ([4]; inhibitor titrated up to 100 µM without enzyme or RNA substrate, compared to the SAH-positive control): not binding to the aptamer at relevant concentrations; also recorded: only minimal MST shifts
IC50 ([2]; MST-derived, 250 nM DNMT2, 5 µM tRNA, 0.9 µM SAM): 9.3 ± 1.7 µM
IC50 [5]: 15.6 ± 3.9 µM
Kd [6]: 7.8 µM

Nc1ncnc2c1ncn2[C@@H]1O[C@H](C[C@@H](N)CC[C@H](N)C(=O)O)[C@@H](O)[C@H]1O [sinefungin]
binding to split aptamer (MST shift) ([4]; SAH analogs at 10 µM, aptaSAH1&2 both 50 nM): slight MST shift
